Results as given in US5409933A, “Quinoline derivatives and processes for preparing the same” (priority 1993, dated 1995).
Counter-ions that a name gives are not always drawn. Like-named read-outs stand apart in the source and are kept apart here.

Legend:
P. mirabilis = assay: Treatment Effect on the Systemic Infection; type: in vivo, NMRI mice; settings: Proteus mirabilis, in Mus musculus, 240 h, P. mirabilis, immediately and 4 hours after infection, survival on 10th day
Method: (§1) 10 fold of the pathogens which lead to 100% lethality were injected intraperitoneally to male and female NMRI mice weighing 18 to 20 g. Immediately and 4 hours after injection, the dose of test compounds, which was determined by two-fold serial dilution method, was administered orally or subcutaneously to the mice, and on the 10th day, the effect was evaluated in terms of ED50 calculated from the number of survived mice by the probit analysis.

S. aureus 17740 = assay: Treatment Effect on the Systemic Infection; type: in vivo, NMRI mice; settings: Staphylococcus aureus, in Mus musculus, 240 h, S. aureus 17740, immediately and 4 hours after infection, survival on 10th day
Method: as §1

Acute Toxicity Test = settings: mouse, in vivo, ICR mice, 14th day
Method: Test compounds were administered to ICR mice weighing 20 to 25 g. On 14th day, LD50 was calculated from the number of survived mice by the probit analysis.

Escherichia coli 1507E = assay: In Vitro Anti-Bacterial Activity Test (MIC, agar dilution); type: cell-based; settings: Muller-Hinton agar, 37° C.
Summary of the method: (§2)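 Bacterial suspensions of 10^7 C.F.U./ml are inoculated onto Muller-Hinton agar containing graded compound levels. After 18 hours at 37° C., the lowest level showing no growth is recorded as MIC.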

Enterobacter cloacae P99 = assay: as above; type: cell-based; settings: Enterobacter cloacae, P99, 18 h
Summary of the method: (§3)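 MIC was determined by agar dilution on Mueller-Hinton agar. Each strain was inoculated at 10^7 C.F.U./ml, and growth was observed after 18 hours at 37° C, with ciprofloxacin as control agent.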

Escherichia coli DC0 = assay: as above; type: cell-based; settings: Muller-Hinton agar, 37° C., 18 hours, read-out: MIC
Summary of the method: as §2

[1] = tested on: Staphylococcus aureus 503; assay: as above; type: cell-based; settings: Staphylococcus aureus 503; Muller-Hinton agar, 37° C., 18 hours; read-out: MIC
Summary of the method: as §2

Escherichia coli TEM = assay: as above; type: cell-based; settings: Escherichia coli, 18 h, Muller-Hinton agar, 37° C.
Summary of the method: as §3

[2] = tested on: Streptococcus pyogenes 77A; assay: as above; type: cell-based; settings: Streptococcus pyogenes 77A; Muller-Hinton agar, 37° C., 18 hours; read-out: MIC
Summary of the method: as §2

[3] = tested on: Enterobacter cloacae 1321E; assay: as above; type: cell-based
Summary of the method: as §2

[4] = tested on: Pseudomonas aeruginosa 1592E; assay: as above; type: cell-based; settings: Muller-Hinton agar, 37° C., 18 hours, read-out: MIC
Summary of the method: as §2

[5] = tested on: Pseudomonas aeruginosa 1771; assay: as above; type: cell-based; settings: Pseudomonas aeruginosa 1771; Muller-Hinton agar, 37° C., 18 hours; read-out: MIC
Summary of the method: as §2

[6] = tested on: Pseudomonas aeruginosa 1771M; assay: as above; type: cell-based; settings: Pseudomonas aeruginosa, 1771M, 18 h, Muller-Hinton agar, 37° C.
Summary of the method: as §2

[7] = tested on: Staphylococcus aureus 285; assay: as above; type: cell-based; settings: Staphylococcus aureus, 285, 18 h, Staphylococcus aureus 285; Muller-Hinton agar, 37° C., 18 hours; read-out: MIC
Summary of the method: as §2

[8] = tested on: Klebsiella aerogenes 1522E; assay: as above; type: cell-based; settings: Klebsiella aerogenes, 1522E, 18 h, Klebsiella aerogenes 1522E; Muller-Hinton agar, 37° C., 18 hours; read-out: MIC
Summary of the method: as §2

[9] = tested on: Pseudomonas aeruginosa 9027; assay: as above; type: cell-based; settings: Muller-Hinton agar, 37° C., 18 hours, read-out: MIC
Summary of the method: as §2

Escherichia coli 078 = assay: as above; type: cell-based; settings: Escherichia coli 078; Muller-Hinton agar, 37° C., 18 hours; read-out: MIC
Summary of the method: as §2

[10] = tested on: Streptococcus faecium MD8b; assay: as above; type: cell-based; settings: Enterococcus faecium, Muller-Hinton agar, 37° C., 18 hours, read-out: MIC
Summary of the method: as §2

Salmonella typhimurium = assay: as above; type: cell-based; settings: Salmonella enterica; Salmonella typhimurium; Muller-Hinton agar, 37° C., 18 hours; read-out: MIC
Summary of the method: as §2

Klebsiella oxytoca 1082E = assay: as above; type: cell-based; settings: Klebsiella oxytoca 1082E; Muller-Hinton agar, 37° C., 18 hours; read-out: MIC
Summary of the method: as §2

[11] = tested on: Streptococcus pyogenes 308A; assay: as above; type: cell-based; settings: Muller-Hinton agar, 37° C., 18 hours, read-out: MIC
Summary of the method: as §2

Escherichia coli DC2 = assay: as above; type: cell-based; settings: Escherichia coli, DC2, 18 h
Summary of the method: as §2

[12] = tested on: Staphylococcus aureus SG511; assay: as above; type: cell-based; settings: Staphylococcus aureus SG511; Muller-Hinton agar, 37° C., 18 hours; read-out: MIC
Summary of the method: as §2

[13] = oral, read-out: ED50 Oral Administration
[14] = sc, subcutaneous, read-out: ED50 Subcutaneous Injection
[15] = ip, read-out: Acute Toxicity LD50, Peritomeo Injection
[16] = oral, read-out: Acute Toxicity LD50, Oral Administration
[17] = Enterobacter cloacae 1321E, Muller-Hinton agar, 37° C., 18 hours, read-out: MIC

SMILES: N[C@H]1CCN(c2c(F)cc3c(=O)c(C(=O)C[N+](=O)[O-])cn(C4CC4)c3c2Cl)C1 [Example 13, 1-cyclopropyl-6-fluoro-8-chloro-7-(3-3S-aminopyrrolidin-1-yl)-3-(2-nitroacetyl)-1,4-dihydro-4-oxoquinoline hydrochloride]
- ED50 (P. mirabilis; [13]): 0.21 mg/kg
- ED50 (P. mirabilis; [14]): 0.08 mg/kg
- ED50 (S. aureus 17740; [13]): 128 mg/kg
- ED50 (S. aureus 17740; [14]): 16.8 mg/kg
- LD50 at 336 h (Acute Toxicity Test; [15]): 580 mg/kg
- LD50 at 336 h (Acute Toxicity Test; [16]): 3800 mg/kg
- MIC (Escherichia coli 1507E; 18 hours, read-out: MIC): 0.004 µg/mL
- MIC (Enterobacter cloacae P99): 0.004 µg/mL
- MIC (Escherichia coli DC0): 0.049 µg/mL
- MIC [1]: 0.049 µg/mL
- MIC (Escherichia coli TEM): < 0.002 µg/mL
- MIC [2]: 0.195 µg/mL
- MIC [3, 17]: < 0.002 µg/mL
- MIC [4]: 0.195 µg/mL
- MIC [5]: 0.195 µg/mL
- MIC [6]: 0.049 µg/mL
- MIC [7]: 0.025 µg/mL
- MIC [8]: 0.013 µg/mL
- MIC [9]: 0.195 µg/mL
- MIC (Escherichia coli 078): < 0.002 µg/mL
- MIC [10]: 0.195 µg/mL
- MIC (Salmonella typhimurium): < 0.002 µg/mL
- MIC (Klebsiella oxytoca 1082E): < 0.002 µg/mL
- MIC [11]: 0.195 µg/mL
- MIC (Escherichia coli DC2): 0.013 µg/mL
- MIC [12]: 0.025 µg/mL

SMILES: CNCC1=CCN(c2c(F)cc3c(=O)c(C(=O)C[N+](=O)[O-])cn(C4CC4)c3c2Cl)C1 [Example 16, 1-cyclopropyl-6-fluoro-8-chloro-7-(3-methylaminomethyl-2,5-dihydropyrrol-1-yl)-3-(2-nitroacetyl)-1,4-dihydro-4-oxoquinoline hydrochloride]
- ED50 (S. aureus 17740; [13]): 49.7 mg/kg
- ED50 (S. aureus 17740; [14]): 97.6 mg/kg
- LD50 at 336 h (Acute Toxicity Test; [15]): 605 mg/kg
- LD50 at 336 h (Acute Toxicity Test; [16]): 3800 mg/kg
- MIC (Escherichia coli 1507E; Escherichia coli, 1507E, 18 h): 0.013 µg/mL
- MIC (Enterobacter cloacae P99): 0.007 µg/mL
- MIC (Escherichia coli DC0): 0.098 µg/mL
- MIC [1]: < 0.002 µg/mL
- MIC (Escherichia coli TEM): 0.004 µg/mL
- MIC [2]: 0.025 µg/mL
- MIC ([3]; Enterobacter cloacae, 1321E, 18 h): 0.007 µg/mL
- MIC [4]: 0.781 µg/mL
- MIC [5]: 0.391 µg/mL
- MIC [6]: 0.195 µg/mL
- MIC [7]: 0.004 µg/mL
- MIC [8]: 0.013 µg/mL
- MIC [9]: 0.781 µg/mL
- MIC (Escherichia coli 078): 0.004 µg/mL
- MIC [10]: 0.013 µg/mL
- MIC (Salmonella typhimurium): < 0.02 µg/mL
- MIC (Klebsiella oxytoca 1082E): 0.007 µg/mL
- MIC [11]: 0.098 µg/mL
- MIC (Escherichia coli DC2): 0.013 µg/mL
- MIC [12]: 0.004 µg/mL

SMILES: O=C(C[N+](=O)[O-])c1cn(C2CC2)c2c(Cl)c(N3CC4=C(CNC4)C3)c(F)cc2c1=O [Example 34, 1-cyclopropyl-6-fluoro-8-chloro-7-(3,7-diazabicyclo[3.3.0]oct-1,5-en-3-yl)-3-(2-nitroacetyl)-1,4-dihydro-4-oxoquinoline hydrochloride]
- ED50 (P. mirabilis; [13]): 0.41 mg/kg
- ED50 (P. mirabilis; [14]): 0.16 mg/kg
- LD50 at 336 h (Acute Toxicity Test; [15]): 620 mg/kg
- LD50 at 336 h (Acute Toxicity Test; [16]): 4000 mg/kg
- MIC (Escherichia coli 1507E; Escherichia coli, 1507E, 18 h): 0.007 µg/mL
- MIC (Enterobacter cloacae P99): 0.007 µg/mL
- MIC (Escherichia coli DC0): 0.195 µg/mL
- MIC [1]: 0.098 µg/mL
- MIC (Escherichia coli TEM): 0.007 µg/mL
- MIC [2]: 0.098 µg/mL
- MIC [3, 17]: 0.049 µg/mL
- MIC [4]: 0.391 µg/mL
- MIC [5]: 0.195 µg/mL
- MIC [6]: 0.098 µg/mL
- MIC [7]: 0.049 µg/mL
- MIC [8]: 0.013 µg/mL
- MIC [9]: 0.391 µg/mL
- MIC (Escherichia coli 078): < 0.002 µg/mL
- MIC [10]: 0.098 µg/mL
- MIC (Salmonella typhimurium): 0.004 µg/mL
- MIC (Klebsiella oxytoca 1082E): < 0.002 µg/mL
- MIC [11]: 0.391 µg/mL
- MIC (Escherichia coli DC2): 0.098 µg/mL
- MIC [12]: 0.025 µg/mL
